Measurements published in patent US7160684B2, “Methods of selecting compounds for modulation of bladder function” (Wyeth, priority 2000, dated 2007).

Tests used:
[1] = system: cultured human bladder smooth muscle cells; test: Current clamp recording of resting membrane potential, human cells; format: cell-based; conditions: resting membrane potential −8.0±2.8 mV before retigabine; n=3
Experimental: Single cell recordings are performed with a List-Medical EPC-7 patch clamp amplifier (Adams & List Assoc., Westbury, N.Y.). Pipette electrodes had tip resistances of 2–4 MΩ and are filled with the following composition (mM): KCl (126.0), MgCl2.6H2O (4.5), ATP Mg salt (4.0), GTP tris salt (0.3), creatine PO4 (14.0), D-glucose (9.0), EGTA (9.0), HEPES (9.0). The pH is adjusted to 7.4 with KOH. Signals are acquired (3 kHz high frequency cut-off, 12 bit resolution) using a 586-based personal computer.
Cell resting membrane potential (RMP) is measured in current clamp using the above mentioned instrumentation and pipette solutions. For these experiments nystatin is also added to the pipette solution (100 μg/ml) to allow recording through utilization of the perforated patch technique (Korn, et al, 1991). After stable access is achieved, RMP is recorded for a 5 minute control period followed by 5 minute of drug application (0.3 and 1.0 μM). After this time, various antagonists (linopirdine, XE-991) are added to the perfusate and RMP is recorded for an additional 5 minutes. […]
Rat bladder strips were isolated and prepared as previously described (Wojdan, A., Freeden, C., Woods, M., Oshiro, G., Spinelli, W. et al., J Pharmacol ExpTherap 289:1410–1418 (1999)). […] Message for KCNQ subunits was probed using quantitative rtPCR on an ABI PRISM 7700 Sequence Detection System (TAQMAN). […]

rat bladder micturition = test: Rat bladder cystometry, hyperreflexic bladder (0.25% acetic acid infusate); format: in vivo
Experimental: Micturition frequency is enhanced by the stimulation of sensory afferents using a dilute acetic acid solution in the cystometric infusate as previously described by Birder and de Groat (Birder L A. de Groat W C. Increased c-fos expression in spinal neurons after irritation of the lower urinary tract in the rat. J Neuroscience 12: 4878–89, (1992)). Briefly, female Sprague-Dawley rats (190–210 g) are anesthetized with urethane (lg/kg/10 mL, i. p.; 1 g/kg/10 mL, s. q.). The trachea is cannulated with PE205 to ensure a patent airway. The external jugular is cannulated with PE50 tubing for administration of compound. The bladder is exposed through a midline incision, and an angiocatheter (24 g, TEFLON), is heat flared at the end and inserted into the dome of the bladder and secured with 4-0 silk. The bladder is flushed with normal saline and allowed to equilibrate for 1 hour before cystometry is performed. Using a “T” connector, the bladder catheter is connected to a Statham pressure transducer (Model P23Db) and to a Harvard infusion pump. Cystometric recordings are monitored on a GRASS polygraph while infusing the bladder with saline containing 0.25% acetic acid at a rate of 2.4 mL/hr. for one hour. Next, compound is administered intravenously and the cystometry monitored for an additional 2 hours. The following cystometric parameters are recorded: micturition interval, micturition amplitude, micturition threshold pressure, bladder capacity, bladder compliance and the number of spontaneous bladder contractions (SBC) during the filling phase. The control period is taken as the 30 minute time period of acetic acid saline perfusion before dosing.
Rat bladder micturition frequency (enhanced by infusate containing 0.25% acetic acid (Birder, L. A., & deGroat, W., C. Increased c-fos expression in spinal neurons after irritation of the lower urinary tract in the rat. J Neurosc 12: 4878–4889 (1992))) was inhibited by retigabine in a dose-dependent (0.1–10 mg/kg, i.p.) manner. At 10 mg/kg, micturition was blocked in 100% of animals dosed; the population ED50 was 1–2 mg/kg (n=5–8). Micturition block lasted for up to 90 minutes (FIG. 4a).
Rat bladder strips were isolated and prepared as previously described (Wojdan, A., Freeden, C., Woods, M., Oshiro, G., Spinelli, W. et al., J Pharmacol ExpTherap 289:1410–1418 (1999)). Preparations were contracted with either 20 or 60 mM KCl, or 200 nM carbachol. A five minute area under the contraction curve was acquired 20 minutes after addition of each concentration of retigabine using a 12 bit D/A and a 586 based personal computer running custom software. Message for KCNQ subunits was probed using quantitative rtPCR on an ABI PRISM 7700 Sequence Detection System (TAQMAN). Forward and reverse primers and TAQMAN probes were designed using published RNA sequences for human KCNQ1–5 and rat KCNQ 1–4 listed within the NCBI data base. Since no rat sequence for KCNQ5 were currently published, probes and primers were designed by BLAST analysis of rat Expressed Sequence Tags (EST) using the known mouse KNCQ5 sequence. From homologous EST sequences, a contiguous sequence of 384 base pairs was constructed. Probes and primers were designed against this sequence. BLAST analysis of our rat KCNQ5 probes and primer were selective for mouse and human KCNQ5 sequences. PCR products were confirmed by gel electrophoresis (data not shown). Cells for electrophysiology were prepared from rat bladder smooth muscle as previously described (Wojdan et al., 1999). Human bladder smooth muscle cells were obtained from Clonetics, San Diego, Calif. Cells were removed from culture with trypsin and added directly into the recording chamber. All recordings were made at 320 C and acquired on a 586 based personal computer using pCLAMP (Axon Instruments) software. Current clamp recordings were performed with nystatin access as previously described (Wojdan et al.). […]

CCOC(=O)Nc1ccc(NCc2ccc(F)cc2)cc1N [retigabine, N-[2-amino-4-(4-fluorobenzylamino)-phenyl]carbamic acid ethyl ester]
hyperpolarization of cells [1]: 11±1.1 mV | frequency of spontaneous contractions during bladder filling (rat bladder micturition; 0.1 mg/kg, in comparison to the control): significantly reduced | inhibition of spontaneous contractions (rat bladder micturition; 1 mg/kg, i.p., p<0.05): 43.5±14.1% | animals in which micturition was blocked (rat bladder micturition; 10 mg/kg, i.p.): 100% | micturition (rat bladder micturition; 10 mg/kg, i.p., within minutes of dosing, four rats): completely blocked | ED50 (rat bladder micturition; Rattus norvegicus, ip, n=5–8, read-out: population ED50 for micturition block): 1 to 2 mg/kg | micturition frequency (rat bladder micturition; dose-dependent, 0.1–10 mg/kg, i.p.): inhibited | duration of micturition block (rat bladder micturition; i.p., FIG. 4a): up to 90 minutes
